The NIST ThermoML archive (doi:10.1021/acs.jced.5b00796)
± gives the expanded uncertainty stated by the source.

Conditions: Liquid, Ebulliometric method (Recirculating still)

Structure (SMILES) | vapor or sublimation pressure (354.25 K) [kPa] | vapor or sublimation pressure (337.85 K) [kPa]
CC#N [acetonitrile] | 101.32 ± 1 | 
CO [methanol] |  | 101.32 ± 1
